Measured values as given in PubChem BioAssay AID2060330 (Molecular Pharmacology Branch, DTP, NCI, 2025).

System: LG0703-F948-PDC spheroids with HUVEC/MSC, viability
Assay: Anticancer human tumor LG0703-F948-PDC patient-derived lung adenocarcinoma cell line growth inhibition [IpAb]
Details: for IC50: curve of first compound; for viability, T/C: stronger effect = lower value; active = viability on the fitted dose curve at most 10% of control; inactive = the rest
Description: Combinatorial screen of targeted agents with ipatasertib and abemaciclib in multi-cell type tumor spheroids
A high-throughput screen of multi-cell type tumor spheroids was designed to identify active combinations of targeted small molecules and ipatasertib or abemaciclib. Complex spheroids include a stromal component modeled by human endothelial cells (HUVEC) and fibroblasts modeled by human mesenchymal stem cells (MSCs). The concentration ranges selected for each drug and investigational agent were based upon clinically achievable concentrations if the clinical Cmax of the agent was known.
Compounds. The drugs and investigational agents: ipatasertib (NSC767898), abemaciclib(NSC768073), selumetinib (NSC741078), trametinib (758246), adavosertib (NSC754352), everolimus (NSC733504), sapanisertib (NSC764658), vemurafenib (NSC761431), venetoclax (NSC766270), copanlisib (NSC809693), apelisib (NSC765974), palbociblib (NSC758247), vemurafenib (NSC761431), dabrafenib (NSC764134), ravoxertinib (NSC781343), BMS-387032 (NSC767048), sotorasib (NSC818433), talazoparib (NSC767125) and afursertib (NSC778305), were obtained from the National Cancer Institute (NCI) Developmental Therapeutics Program Chemical Repository. The FDA-approved anticancer drug set is available from the NCI Developmental Therapeutics Program. […] The stock solutions were prepared in dimethyl sulfoxide (DMSO, Sigma-Aldrich, St. Louis, MO, cat. D2650) at 800-fold the tested concentration and stored at -70 degrees C prior to their use. All drugs and investigational agents were tested over a range starting from a high concentration at or near the clinical Cmax and decreasing in half-log increments. If the clinical Cmax for an agent had not been determined, the highest concentration tested was 10 microM.
NCI60 Cell Culture. NCI60 cell lines were obtained from the NCI Developmental Therapeutics Program Tumor Repository. For each lot of cells, the Repository performed Applied Biosystems AmpFLSTR Identifiler testing with PCR amplification to confirm consistency with the published Identifier STR profile for each cell line. Cells were kept in continuous culture for no more than 20 passages. The optimal seeding densities for each of the cell lines at each time point assessed were determined prior to performing the concentration response studies. Briefly, the NCI60 human tumor lines were grown as monolayers in RPMI 1640 medium supplemented with 10% FBS and 2 mmol/L L-glutamine.
An additional 9 lines were from the NCI60 cell line panel including MDA-MB-231 breast carcinoma, MDA-MB-468 breast carcinoma, MCF7 breast carcinoma, Hs578T breast carcinoma, MALME-3M melanoma, SK-MEL-2 melanoma, SK-OV-3 ovarian carcinoma, DU-145 prostate carcinoma, PC-3 prostate carcinoma, all cell lines along with major genetic alterations are listed on Table 2. Pooled donor human umbilical vein endothelial cells (HUVEC, Lonza, cat. CC-2519) and human mesenchymal stem cells (hMSC, Lonza, cat. PT-2501) were purchased from Lonza (Walkersville, MD).
PDMR cell lines were grown in complete medium (DC medium): Dulbecco's modified Eagle's medium (DMEM)/F12 supplemented with 5% fetal bovine serum (FBS), 2 mM L-glutamine, 100 U/mL penicillin and 100 µg/ml streptomycin, 0.4 µg/ml hydrocortisone, 10 ng/ml epidermal growth factor (EGF) recombinant human protein, 24 µg/mL adenine, and 0.1 mg/mL primocin. During culture from frozen stock vials, PDMR cells were cultured in the same medium containing 10 µM Y-27632 (see Table 3). The PDCs were cultured in complete DMEM/F12 media without 10 microM Y-27632 dihydrochloride for at least two passages prior to the screen. The pooled donor HUVEC and hMSC were cultured in endothelial cell growth medium 2 (PromoCell, Heidelberg, Germany, cat. C-22011) and mesenchymal stem cell growth medium 2 (PromoCell, cat. C-28009), respectively. For all experiments, HUVEC and hMSC were used at passages </=5.
[…]

[1] = second compound 0.1 µM, first compound 0.0316 µM
[2] = second compound 0.1 µM, first compound 0.1 µM
[3] = second compound 0.1 µM, first compound 0.316 µM
[4] = second compound 0.1 µM, first compound 1 µM
[5] = second compound 0.316 µM, first compound 0.0316 µM
[6] = second compound 0.316 µM, first compound 0.1 µM
[7] = second compound 0.316 µM, first compound 0.316 µM
[8] = second compound 0.316 µM, first compound 1 µM
[9] = second compound 1 µM, first compound 0.0316 µM
[10] = second compound 1 µM, first compound 0.1 µM
[11] = second compound 1 µM, first compound 0.316 µM
[12] = second compound 1 µM, first compound 1 µM
[13] = second compound 3.16 µM, first compound 0.0316 µM
[14] = second compound 3.16 µM, first compound 0.1 µM
[15] = second compound 3.16 µM, first compound 0.316 µM
[16] = second compound 3.16 µM, first compound 1 µM
[17] = second compound 10 µM, first compound 0.0316 µM
[18] = second compound 10 µM, first compound 0.1 µM
[19] = second compound 10 µM, first compound 0.316 µM
[20] = second compound 10 µM, first compound 1 µM
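Note: spheroids exposed to compounds for seven days before readout.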
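Throughout, for viability, T/C: T/C percent relative to DMSO vehicle wells set as 100% viability.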

CC(=O)c1c(C)c2cnc(Nc3ccc(N4CCNCC4)cn3)nc2n(C2CCCC2)c1=O + CC(C)NCC(C(=O)N1CCN(c2ncnc3c2C(C)CC3O)CC1)c1ccc(Cl)cc1
inactive: viability, T/C (second compound 0.1 µM, first compound 0.000949 µM) 86.8% | viability, T/C (second compound 0.1 µM, first compound 0.003 µM) 86% | viability, T/C (second compound 0.1 µM, first compound 0.00949 µM) 84.8% | viability, T/C (second compound 0.1 µM, first compound 0.03 µM) 73.3% | viability, T/C (second compound 0.1 µM, first compound 0.0949 µM) 80.4% | viability, T/C (second compound 0.1 µM, first compound 0.3 µM) 73.4% | viability, T/C (second compound 0.316 µM, first compound 0.000949 µM) 70.5% | viability, T/C (second compound 0.316 µM, first compound 0.003 µM) 69.7% | viability, T/C (second compound 0.316 µM, first compound 0.00949 µM) 60.5% | viability, T/C (second compound 0.316 µM, first compound 0.03 µM) 62.5% | viability, T/C (second compound 0.316 µM, first compound 0.0949 µM) 58.4% | viability, T/C (second compound 0.316 µM, first compound 0.3 µM) 60.3% | viability, T/C (second compound 1 µM, first compound 0.000949 µM) 54.6% | viability, T/C (second compound 1 µM, first compound 0.003 µM) 53.1% | viability, T/C (second compound 1 µM, first compound 0.00949 µM) 42.4% | viability, T/C (second compound 1 µM, first compound 0.03 µM) 41.8% | viability, T/C (second compound 1 µM, first compound 0.0949 µM) 42.1% | viability, T/C (second compound 1 µM, first compound 0.3 µM) 43.9% | viability, T/C (second compound 3.16 µM, first compound 0.000949 µM) 50.1% | viability, T/C (second compound 3.16 µM, first compound 0.003 µM) 41.8% | viability, T/C (second compound 3.16 µM, first compound 0.00949 µM) 41.7% | viability, T/C (second compound 3.16 µM, first compound 0.03 µM) 42.2% | viability, T/C (second compound 3.16 µM, first compound 0.0949 µM) 34.9% | viability, T/C (second compound 3.16 µM, first compound 0.3 µM) 33.5% | viability, T/C (second compound 10 µM, first compound 0.000949 µM) 41.5% | viability, T/C (second compound 10 µM, first compound 0.003 µM) 37.9% | viability, T/C (second compound 10 µM, first compound 0.00949 µM) 43.5% | viability, T/C (second compound 10 µM, first compound 0.03 µM) 40% | viability, T/C (second compound 10 µM, first compound 0.0949 µM) 33.5% | viability, T/C (second compound 10 µM, first compound 0.3 µM) 27.5%
2.55 nM: IC50 (second compound 1 µM)
< 0.949 nM: IC50 (second compound 3.16 µM) | IC50 (second compound 10 µM)
> 300 nM: IC50 (second compound 0.1 µM) | IC50 (second compound 0.316 µM)

COc1c(OCCCN2CCOCC2)ccc2c3n(c(=NC(=O)c4cnc(N)nc4)nc12)CCN3 + CC(C)NCC(C(=O)N1CCN(c2ncnc3c2C(C)CC3O)CC1)c1ccc(Cl)cc1
inactive: viability, T/C (second compound 0.1 µM, first compound 0.00316 µM) 84.6% | viability, T/C (second compound 0.1 µM, first compound 0.01 µM) 70.1% | viability, T/C [1] 47% | viability, T/C [2] 21.8% | viability, T/C (second compound 0.316 µM, first compound 0.00316 µM) 66.5% | viability, T/C (second compound 0.316 µM, first compound 0.01 µM) 51.5% | viability, T/C [5] 39.8% | viability, T/C [6] 15.7% | viability, T/C (second compound 1 µM, first compound 0.00316 µM) 52.1% | viability, T/C (second compound 1 µM, first compound 0.01 µM) 42.5% | viability, T/C [9] 30.1% | viability, T/C [10] 11.3% | viability, T/C (second compound 3.16 µM, first compound 0.00316 µM) 41.9% | viability, T/C (second compound 3.16 µM, first compound 0.01 µM) 35.7% | viability, T/C [13] 19.8% | viability, T/C [14] 11.6% | viability, T/C (second compound 10 µM, first compound 0.00316 µM) 38.6% | viability, T/C (second compound 10 µM, first compound 0.01 µM) 28.4% | viability, T/C [17] 25.3% | viability, T/C [18] 7.44%
3.91 nM: IC50 (second compound 1 µM)
13.6 nM: IC50 (second compound 0.316 µM)
26.6 nM: IC50 (second compound 0.1 µM)
< 3.16 nM: IC50 (second compound 3.16 µM) | IC50 (second compound 10 µM)
active: viability, T/C [3] 6.53% | viability, T/C [4] 4.98% | viability, T/C [7] 5.88% | viability, T/C [8] 3.95% | viability, T/C [11] 5.86% | viability, T/C [12] 4.35% | viability, T/C [15] 4.56% | viability, T/C [16] 4.47% | viability, T/C [19] 3.76% | viability, T/C [20] 2.45%

Cc1nc(NC(=O)N2CCCC2C(N)=O)sc1-c1ccnc(C(C)(C)C(F)(F)F)c1 (stereo not given) + CC(C)NCC(C(=O)N1CCN(c2ncnc3c2C(C)CC3O)CC1)c1ccc(Cl)cc1
64.8 nM: IC50 (second compound 1 µM)
366 nM: IC50 (second compound 0.316 µM)
< 31.6 nM: IC50 (second compound 3.16 µM) | IC50 (second compound 10 µM)
active: viability, T/C (second compound 0.1 µM, first compound 10 µM) 2.44% | viability, T/C (second compound 0.316 µM, first compound 10 µM) 2.34% | viability, T/C (second compound 1 µM, first compound 10 µM) 1.78% | viability, T/C (second compound 3.16 µM, first compound 10 µM) 2.03% | viability, T/C (second compound 10 µM, first compound 10 µM) 1.55%
inactive: viability, T/C [1] 77.9% | viability, T/C [2] 76.6% | viability, T/C [3] 64.3% | viability, T/C [4] 50.7% | viability, T/C (second compound 0.1 µM, first compound 3.16 µM) 22.4% | viability, T/C [5] 59.6% | viability, T/C [6] 60.8% | viability, T/C [7] 52.1% | viability, T/C [8] 36.5% | viability, T/C (second compound 0.316 µM, first compound 3.16 µM) 21.1% | viability, T/C [9] 54% | viability, T/C [10] 46.7% | viability, T/C [11] 39.7% | viability, T/C [12] 32.1% | viability, T/C (second compound 1 µM, first compound 3.16 µM) 13.8% | viability, T/C [13] 45.5% | viability, T/C [14] 39.7% | viability, T/C [15] 35.8% | viability, T/C [16] 24.1% | viability, T/C (second compound 3.16 µM, first compound 3.16 µM) 13.1% | viability, T/C [17] 39.5% | viability, T/C [18] 33.4% | viability, T/C [19] 35.9% | viability, T/C [20] 19% | viability, T/C (second compound 10 µM, first compound 3.16 µM) 12.3%
929 nM: IC50 (second compound 0.1 µM)
